A value given as a limit tells only on which side of the number the result lay.

Broadly, the IC50 is the concentration at which inhibition is half-maximal. Lower therefore signals higher potency.

The target in this experiment is T1, TNKS1 (Homo sapiens, UniProt O95271).
T1 construct: purchased BPS Bioscience, San Diego, USA 80579 (TNKS1 Histone Ribosylation Assay Kit)
T1 sequence (O95271 1-1327): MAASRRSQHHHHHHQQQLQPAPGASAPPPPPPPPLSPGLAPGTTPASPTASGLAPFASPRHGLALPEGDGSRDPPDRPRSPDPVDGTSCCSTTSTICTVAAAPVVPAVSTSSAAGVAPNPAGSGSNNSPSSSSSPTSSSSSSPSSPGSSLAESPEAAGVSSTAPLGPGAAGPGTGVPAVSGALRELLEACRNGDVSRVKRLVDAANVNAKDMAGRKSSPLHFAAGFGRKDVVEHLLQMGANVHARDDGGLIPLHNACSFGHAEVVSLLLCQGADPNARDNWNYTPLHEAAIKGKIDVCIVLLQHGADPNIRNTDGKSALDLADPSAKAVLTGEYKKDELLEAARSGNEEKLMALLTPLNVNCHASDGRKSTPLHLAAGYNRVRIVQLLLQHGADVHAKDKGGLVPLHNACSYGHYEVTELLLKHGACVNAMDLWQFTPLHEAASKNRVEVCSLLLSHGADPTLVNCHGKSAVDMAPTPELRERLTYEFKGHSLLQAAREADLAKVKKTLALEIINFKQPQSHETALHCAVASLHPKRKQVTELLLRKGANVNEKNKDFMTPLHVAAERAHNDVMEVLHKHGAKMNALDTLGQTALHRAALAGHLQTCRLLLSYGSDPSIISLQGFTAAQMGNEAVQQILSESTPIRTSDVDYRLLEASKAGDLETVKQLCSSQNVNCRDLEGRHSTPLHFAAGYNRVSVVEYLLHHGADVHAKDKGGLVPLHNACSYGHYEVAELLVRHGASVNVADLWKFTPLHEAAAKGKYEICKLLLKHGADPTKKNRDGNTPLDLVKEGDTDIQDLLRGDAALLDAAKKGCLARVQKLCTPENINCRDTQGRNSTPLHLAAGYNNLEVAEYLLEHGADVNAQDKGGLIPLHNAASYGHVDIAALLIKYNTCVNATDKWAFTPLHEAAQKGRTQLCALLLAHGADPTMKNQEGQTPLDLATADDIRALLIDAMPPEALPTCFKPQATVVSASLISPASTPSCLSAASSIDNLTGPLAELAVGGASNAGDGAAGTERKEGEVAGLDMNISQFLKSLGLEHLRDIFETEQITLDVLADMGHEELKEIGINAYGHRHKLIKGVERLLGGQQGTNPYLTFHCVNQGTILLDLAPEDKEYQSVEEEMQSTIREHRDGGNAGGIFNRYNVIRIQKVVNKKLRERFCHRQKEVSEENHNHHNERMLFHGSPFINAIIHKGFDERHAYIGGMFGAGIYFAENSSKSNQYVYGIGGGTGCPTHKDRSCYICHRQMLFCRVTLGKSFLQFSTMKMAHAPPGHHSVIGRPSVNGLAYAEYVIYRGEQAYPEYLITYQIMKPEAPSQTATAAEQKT
Description: TNKS1 Assay B (auto-parsylation, [3H]-NAD+ SPA). The class given is biochemical. Particulars: 6 nM TNKS1, auto-parsylation, over night at room temperature.

`O=C(N[C@H]1CC[C@H](C(=O)Nc2ccc(F)cc2Cl)CC1)c1cnc2ccc(N3CCOCC3)nn12` [Example 48, N-{trans-4-[(2-chloro-4-fluorophenyl)carbamoyl]cyclohexyl}-6-(morpholin-4-yl)imidazo[1,2-b]pyridazine-3-carboxamide] had an IC50 of 0.41 µM.

`CN1CCN(c2ccc3ncc(C(=O)N[C@H]4CC[C@H](C(=O)Nc5ccc(F)cc5Cl)CC4)n3n2)CC1` [Example 49, N-{trans-4-[(2-chloro-4-fluorophenyl)carbamoyl]cyclohexyl}-6-(4-methylpiperazin-1-yl)imidazo[1,2-b]pyridazine-3-carboxamide] yielded a half-inhibitory concentration (IC50) of 0.4 µM.

Turning to `COc1ccc2ncc(C(=O)N[C@H]3CC[C@H](C(=O)Nc4ccc(F)cc4Cl)CC3)n2n1` [Example 50, N-{trans-4-[(2-chloro-4-fluorophenyl)carbamoyl]cyclohexyl}-6-methoxyimidazo[1,2-b]pyridazine-3-carboxamide], inhibition was half-maximal at 0.11 µM (IC50). Against the preceding compound, the IC50 is about 3.6-fold lower.

`O=C(N[C@H]1CC[C@H](C(=O)Nc2ccc(F)cc2Cl)CC1)c1cnc2ccc(N3CCCC3)nn12` [Example 51, N-{trans-4-[(2-chloro-4-fluorophenyl)carbamoyl]cyclohexyl}-6-(pyrrolidin-1-yl)imidazo[1,2-b]pyridazine-3-carboxamide]: the IC50 worked out at 0.083 µM.

For `CN(C)c1ccc2ncc(C(=O)N[C@H]3CC[C@H](C(=O)Nc4ccc(F)cc4Cl)CC3)n2n1` [Example 52, N-{trans-4-[(2-chloro-4-fluorophenyl)carbamoyl]cyclohexyl}-6-(dimethylamino)imidazo[1,2-b]pyridazine-3-carboxamide], the IC50 came to 0.022 µM.

In turn, `CNc1ccc2ncc(C(=O)N[C@H]3CC[C@H](C(=O)Nc4ccc(F)cc4Cl)CC3)n2n1` [Example 53, N-{trans-4-[(2-chloro-4-fluorophenyl)carbamoyl]cyclohexyl}-6-(methylamino)imidazo[1,2-b]pyridazine-3-carboxamide] registered an IC50 of 0.15 µM. This IC50 is about 6.8-fold higher than that of the compound before.

The compound `Cc1c(C(C)O)cnc2c(C(=O)N[C@H]3CC[C@H](C(=O)Nc4ccc(F)cc4Cl)CC3)cnn12` (stereo partly drawn) [Example 58, N-{trans-4-[(2-chloro-4-fluorophenyl)carbamoyl]cyclohexyl}-6-(1-hydroxyethyl)-7-methylpyrazolo[1,5-a]pyrimidine-3-carboxamide] returned an IC50 of 0.74 µM.

`Nc1nn2cccnc2c1C(=O)N[C@H]1CC[C@H](C(=O)Nc2ccc(F)cc2Cl)CC1` [Example 59, 2-amino-N-{trans-4-[(2-chloro-4-fluorophenyl)carbamoyl]cyclohexyl}pyrazolo[1,5-a]pyrimidine-3-carboxamide] had an IC50 of 0.95 µM.

In the case of `Cc1cc(C(C)(C)C)n2ncc(C(=O)N[C@H]3CC[C@H](C(=O)Nc4ccc(F)cc4Cl)CC3)c2n1` [Example 60, 7-tert-butyl-N-{trans-4-[(2-chloro-4-fluorophenyl)carbamoyl]cyclohexyl}-5-methylpyrazolo[1,5-a]pyrimidine-3-carboxamide], the IC50 is greater than 10 µM.

On to `Cc1cnc2c(C(=O)N[C@H]3CC[C@H](C(=O)Nc4ccc(F)cc4Cl)CC3)cnn2c1` [Example 61, N-{trans-4-[(2-chloro-4-fluorophenyl)carbamoyl]cyclohexyl}-6-methylpyrazolo[1,5-a]pyrimidine-3-carboxamide], for which the IC50 was found to be 0.12 µM.

Turning to `Cc1cc(C2CC2)nc2c(C(=O)N[C@H]3CC[C@H](C(=O)Nc4ccc(F)cc4Cl)CC3)cnn12` [Example 62, N-{trans-4-[(2-chloro-4-fluorophenyl)carbamoyl]cyclohexyl}-5-cyclopropyl-7-methylpyrazolo[1,5-a]pyrimidine-3-carboxamide], the IC50 is greater than 10 µM.

`CNC(=O)c1nc[nH]c1C(=O)N[C@H]1CC[C@H](C(=O)Nc2cc(C)c(F)cc2Cl)CC1` [Example 63, N^5-{trans-4-[(2-chloro-4-fluoro-5-methylphenyl)carbamoyl]cyclohexyl}-N^4-methyl-1H-imidazole-4,5-dicarboxamide] gave an IC50 of 0.057 µM.

The compound `Cc1cc(NC(=O)[C@H]2CC[C@H](NC(=O)c3[nH]cnc3C(=O)NCC3CCCO3)CC2)c(Cl)cc1F` (stereo partly drawn) [Example 64, N^5-{trans-4-[(2-chloro-4-fluoro-5-methylphenyl)carbamoyl]cyclohexyl}-N^4-(tetrahydrofuran-2-ylmethyl)-1H-imidazole-4,5-dicarboxamide] had an IC50 of 0.059 µM.

`COCC(C)NC(=O)c1nc[nH]c1C(=O)N[C@H]1CC[C@H](C(=O)Nc2c(F)cc(F)cc2Cl)CC1` (stereo partly drawn) [Example 65, N^5-{trans-4-[(2-chloro-4,6-difluorophenyl)carbamoyl]cyclohexyl}-N^4-(1-methoxypropan-2-yl)-1H-imidazole-4,5-dicarboxamide] came in with an IC50 of 0.17 µM.

In the case of `COC[C@H](C)NC(=O)c1nc[nH]c1C(=O)N[C@H]1CC[C@H](C(=O)Nc2c(F)cc(F)cc2Cl)CC1` [Example 66, N^5-{trans-4-[(2-chloro-4,6-difluorophenyl)carbamoyl]cyclohexyl}-N^4-[(2S)-1-methoxypropan-2-yl]-1H-imidazole-4,5-dicarboxamide], half-maximal inhibition (IC50) required 0.31 µM. Compared with the last compound, the IC50 is about 1.8-fold higher.

In the case of `COC[C@@H](C)NC(=O)c1nc[nH]c1C(=O)N[C@H]1CC[C@H](C(=O)Nc2c(F)cc(F)cc2Cl)CC1` [Example 67, N^5-{trans-4-[(2-chloro-4,6-difluorophenyl)carbamoyl]cyclohexyl}-N^4-[(2R)-1-methoxypropan-2-yl]-1H-imidazole-4,5-dicarboxamide], the IC50 worked out at 0.25 µM.

The compound `COC(C)CNC(=O)c1nc[nH]c1C(=O)N[C@H]1CC[C@H](C(=O)Nc2c(F)cc(F)cc2Cl)CC1` (stereo partly drawn) [Example 68, N^5-{trans-4-[(2-chloro-4,6-difluorophenyl)carbamoyl]cyclohexyl}-N^4-(2-methoxypropyl)-1H-imidazole-4,5-dicarboxamide] displayed an IC50 of 0.06 µM.

Take `O=C(NCC1CCCO1)c1nc[nH]c1C(=O)N[C@H]1CC[C@H](C(=O)Nc2c(F)cc(F)cc2Cl)CC1` (stereo partly drawn) [Example 69, N^5-{trans-4-[(2-chloro-4,6-difluorophenyl)carbamoyl]cyclohexyl}-N^4-(tetrahydrofuran-2-ylmethyl)-1H-imidazole-4,5-dicarboxamide]: the IC50 turned out to be 0.057 µM.

`O=C(NC[C@H]1CCCO1)c1nc[nH]c1C(=O)N[C@H]1CC[C@H](C(=O)Nc2c(F)cc(F)cc2Cl)CC1` [Example 70, N^5-{trans-4-[(2-chloro-4,6-difluorophenyl)carbamoyl]cyclohexyl}-N^4-[(2R)-tetrahydrofuran-2-ylmethyl]-1H-imidazole-4,5-dicarboxamide] came in with a concentration for half-maximal inhibition (IC50) of 0.078 µM.

`O=C(N[C@H]1CC[C@H](C(=O)Nc2ccc(F)cc2Cl)CC1)c1[nH]cnc1C(=O)N1CC(F)(F)C1` [Example 72, N-{trans-4-[(2-chloro-4-fluorophenyl)carbamoyl]cyclohexyl}-4-[(3,3-difluoroazetidin-1-yl)carbonyl]-1H-imidazole-5-carboxamide]: the IC50 was found to be 0.055 µM.

On to `COC(C)(C)CNC(=O)c1nc[nH]c1C(=O)N[C@H]1CC[C@H](C(=O)Nc2ccc(F)cc2Cl)CC1` [Example 73, N^5-{trans-4-[(2-chloro-4-fluorophenyl)carbamoyl]cyclohexyl}-N^4-(2-methoxy-2-methylpropyl)-1H-imidazole-4,5-dicarboxamide], for which the half-maximal inhibitory concentration (IC50) turned out to be 0.27 µM.

Source of the values: patent US20180148418A1, “AMIDO-SUBSTITUTED CYCLOHEXANE DERIVATIVES” (Bayer Pharma Aktiengesellschaft, priority 2015, published 2018).
